# Reference: patent US4273704A, “N-Adamantane-substituted tetrapeptide amides” (G. D. Searle & Co., priority 1979, dated 1981)
# Tested on: phenyl-p-benzoquinone-induced writhing
# Experiment: mouse phenyl-p-benzoquinone-induced writhing test (analgesic activity)
# Format: in vivo
# Conditions: s.c.; 60 minutes; male CD-1 mice; dose which decreased writhing by ≥50% of control mean in 50% of the mice
# Method: This test is a modification of the procedure described by L. C. Hendershot and J. Forsaith, in J. PHARMACOL. EXP. THER., 125:237(1959).
# Details of the test are as follows: Groups of 10 male CD-1 mice (Charles River) weighing 18-25 g. are pretreated subcutaneously (s.c.) or intragastrically (i.g.) with the vehicle control or the compound of interest in a volume of 10 ml/kg. Phenyl-p-benzoquinone (PBQ), 2.5 mg/kg is administered intraperitoneally (i.p.) 30 or 60 minutes later as a 0.025% solution in 5% ethanol. Starting 5 minutes after the PBQ challenge, each mouse is observed for a 10 minute period during which the number of writhes are counted. A "writhe" consists of a combination or sequence of arching the back, pelvic rotation, and hind limb extension. Significant analgesia is assumed when an animal writhing frequency is ≤50% of the daily control group mean. Estimates of the ED50 defined as the dose which decreased writhing by ≥50% of the control group mean in 50% of the mice are determined using the method of J. T. Litchfield and F. Wilcoxon, J. PHARMCOL. EXP. THER., 96:99(1949).
compound,measurement,value
CN1CC[C@]23c4c5ccc(O)c4O[C@H]2[C@@H](O)C=C[C@H]3[C@H]1C5 [morphine],ED50 (95% confidence limits),0.1 mpk
